Columns and labels:
BFU-E cells [1] = experiment: Single BFU-E cell culture in SFELE medium; type: cell-based, mouse
Description: (§1) FIGS. 1A-1F. Glucocorticoids stimulate stress erythropoiesis by enhancing erythroblast output predominantly from BFU-E progenitors. […] Error bars show one standard deviation. […] Error bars show one standard deviation. […] Shown is the fraction of c-kit+ cells after 72 hours. […] Cell numbers in each clone were estimated under the microscope on Day 8. 80% of sorted BFU-E cells form more than 100 daughter cells in erythroid expansion culture.
The “BFU-E” cell population that contains the GC-responsive cells, while highly enriched for BFU-Es, is a heterogeneous mix of erythroid progenitors. In order to determine the effect of GCs at the single cell level, we performed single “BFU-E” cell culture experiments (FIG. 1E).

BFU-E cells [2] = experiment: FACS analysis of c-kit expression of BFU-E cells in SFELE culture; type: cell-based, mouse; conditions: day 3 of culture, 100 nM Dex
Description: as §1

## C[C@@H]1C[C@H]2[C@@H]3CCC4=CC(=O)C=C[C@]4(C)[C@@]3(F)[C@@H](O)C[C@]2(C)[C@@]1(O)C(=O)CO [Dex, dexamethasone]
BFU-E cells [1]; day 8, 100 nM Dex
  Erythroblasts generated by individual BFU-E cells: more than 300,000 erythroblasts
BFU-E cells [1]; in 8 days, 100 nM Dex
  Cell divisions performed by some BFU-E cells: more than 18 cell divisions
BFU-E cells [1]; single cell level, 100 nM Dex versus without Dex
  Additional cell divisions allowed: more than 6 cell divisions
BFU-E cells [2]
  Cells still expressing c-kit: 55%

Reference: patent US20130059783A1, “COMPOSITIONS AND METHODS FOR EXPANDING BFU-E CELLS” (priority 2010, published 2013)
